The nature of data set [1]: Octanol-water partitioning coefficients of cation paired hyaluronic acid (HA). It is filed as physicochemical. Conditions: cation paired with HA. The procedure:
5 mL ddH2O may be mixed overnight at room temperature with 5 mL octanol. A complex containing a macromolecular anion complexed with sodium ions or with cations with alkyl chains is then added to the mixture and again allowed to mix overnight at room temperature in the dark. After overnight incubation, the solution is centrifuged to separate the octanol layer and water layer. The concentration of the macromolecular anion present in each layer is quantified by UV-Vis spectroscopy, or fluorescence spectroscopy, using, for example, a SAFIRE, XFLUOR4, V4.50 microplate reader (Tecan Group Ltd, Morrisville, N.Y.). For detection of siRNA, the fluorescence detection may be performed at an excitation of 485 nm and an emission of 520 nm, and the method may be validated for linearity, accuracy, and precision. Log Po/w may be calculated as the logarithm of the ratio of fluorescence in the octanol layer compared to the water layer.
Cation paired HA was prepared according to methods described in Example 1.

For data set [2] the following is noted: chloride salt; Hansch et al. 1995; cited from earlier work.
The test system of a further data set is HEKa cells. Kind of data set: Biocompatibility in cell culture, MTT Cell Proliferation Assay. It is filed as cell-based, human. Conditions: equal concentrations, 4 hours; differences not statistically significant (p >0.05). The procedure: All cell culture materials were acquired from Life Technologies (Grand Island, N.Y.). Human adult epidermal keratinocytes were cultured in EpiLife Medium supplemented with Human Keratinocyte Growth Supplement, 25 U/mL penicillin, 25 μg/mL streptomycin, and 50 μg/mL neomycin. Cultures were grown at 37° C. with 5% CO2.
Cells were seeded in a 96-well microplate (Corning Inc., Corning, N.Y.) and were allowed to attach and proliferate. Once cells reached ˜80% confluency, the media was removed and FAM-siRNA, robed-FAM-siRNA, or benzyl dimethyl alkyl ammonium chloride salts in media was added. Media alone was used as a control. Cells were incubated with test solution for 4 hours at 37° C. and 5% CO2. After incubation, test solutions were removed, cells were washed with HBSS, and fresh media was added to each well. Cells were allowed to proliferate overnight before being assessed for viability using the MTT Cell Proliferation Assay (ATCC, Manassas, Va.). Viability was determined according to the manufacturer's recommended protocol using a SAFIRE, XFLUOR4, V4.50 microplate reader (Tecan Group Ltd, Morrisville, N.Y.).

Each structure is given as a SMILES string.

`CCCCCCCCCCCCCC[N+](C)(C)C.[Br-]`: in data set [1], the LogPo/w turned out to be 2.14.
In the case of `CCCCCCCCCCCCCC[N+](C)(C)Cc1ccccc1` [BDTA chloride, benzyl dimethyl tetradecyl ammonium], the “Log Po/w, Chloride” value in data set [2] is 1.81^2. Also, the “toxicity of free salts versus robed with siRNAs” value with HEKa cells is given as “more toxic as free salts”.
In data set [1], `C[N+](C)(C)CCO` gave a LogPo/w of −3.32.
`CCCCCCCC[N+](C)(C)Cc1ccccc1` [BDOA chloride, benzyl dimethyl octyl ammonium]: the “toxicity of free salts versus robed with siRNAs” value in the data set with HEKa cells is on record as “more toxic as free salts”.
On to `CCCCCCCCCCCCCCCCCC[N+](C)(C)Cc1ccccc1` [BDSA chloride, benzyl dimethyl stearyl ammonium], for which the “Log Po/w, Chloride” value in data set [2] is on record as 3.23^3. Moreover, in the data set with HEKa cells, the “toxicity of free salts versus robed with siRNAs” value is recorded as “more toxic as free salts”.

The values above are taken from patent US20210162050A1, “TOPICAL FORMULATIONS BASED ON IONIC SPECIES FOR SKIN TREATMENT” (The Regents of the University of California, priority 2016, published 2021).
